Holding throughout (assay): DSF 100 kinase selectivity screen;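 also: compound tested at 20 µM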
Common to all, as to type: binding

Experiment [1] has as its target T1, ~100 representative kinases (Homo sapiens, UniProt O15075).
T1 construct: Recombinant protein kinase domains with a concentration of 2 μM
The conditions noted are these: Protein DCAMKL1; average of three replicates. Here is the method:
(§1) Recombinant protein kinase domains with a concentration of 2 μM were mixed with a 20 μM compound solution in dimethyl sulfoxide (DMSO), 20 mM Hepes (pH 7.5), and 500 mM NaCl. SYPRO Orange (5000×, Invitrogen) was added as a fluorescence probe (1μl/ml). Subsequently, temperature-dependent protein unfolding profiles were measured using the QuantStudio 5 realtime PCR machine (Thermo Fisher Scientific, Waltham, MA, USA). […] The temperature was raised with a step rate of 3°C/min. […] Differences in melting temperature are given as ΔTm values in degrees Celsius. […]

The target in experiment [2] is T2, ~100 representative kinases (Homo sapiens, UniProt P11362).
T2 construct: Recombinant protein kinase domains with a concentration of 2 μM
T2 sequence (P11362 22-822): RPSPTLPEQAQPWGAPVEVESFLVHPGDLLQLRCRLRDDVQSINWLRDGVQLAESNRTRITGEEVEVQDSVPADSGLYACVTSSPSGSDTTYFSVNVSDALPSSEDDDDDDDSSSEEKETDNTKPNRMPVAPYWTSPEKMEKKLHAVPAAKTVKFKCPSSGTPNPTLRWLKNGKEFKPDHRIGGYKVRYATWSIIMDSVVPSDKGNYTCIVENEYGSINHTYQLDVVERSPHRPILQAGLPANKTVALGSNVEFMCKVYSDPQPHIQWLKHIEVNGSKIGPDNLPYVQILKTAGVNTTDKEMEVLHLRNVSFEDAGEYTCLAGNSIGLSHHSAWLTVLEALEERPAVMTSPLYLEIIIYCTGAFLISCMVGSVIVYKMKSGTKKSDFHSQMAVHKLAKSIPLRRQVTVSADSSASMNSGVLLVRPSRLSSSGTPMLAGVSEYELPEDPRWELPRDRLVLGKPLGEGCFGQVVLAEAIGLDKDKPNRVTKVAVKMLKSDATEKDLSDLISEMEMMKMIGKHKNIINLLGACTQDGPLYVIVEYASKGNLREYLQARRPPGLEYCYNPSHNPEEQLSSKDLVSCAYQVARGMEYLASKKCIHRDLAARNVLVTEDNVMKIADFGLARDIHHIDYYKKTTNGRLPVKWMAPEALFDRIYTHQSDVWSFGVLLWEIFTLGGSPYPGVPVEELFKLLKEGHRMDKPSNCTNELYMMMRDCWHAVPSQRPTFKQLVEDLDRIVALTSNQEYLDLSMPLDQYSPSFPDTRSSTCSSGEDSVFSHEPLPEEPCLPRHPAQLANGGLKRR
The conditions noted are these: protein FGFR1; average of three replicates. Here is the method: as §1

Experiment [3] has as its target T3, ~100 representative kinases (Homo sapiens, UniProt P19784).
T3 construct: Recombinant protein kinase domains with a concentration of 2 μM
The conditions noted are these: Protein CK2A2; average of three replicates. Here is the method:
as §1

In experiment [4] the target is T4, ~100 representative kinases (Homo sapiens, UniProt P54753).
T4 construct: Recombinant protein kinase domains with a concentration of 2 μM
T4 sequence (P54753 34-998): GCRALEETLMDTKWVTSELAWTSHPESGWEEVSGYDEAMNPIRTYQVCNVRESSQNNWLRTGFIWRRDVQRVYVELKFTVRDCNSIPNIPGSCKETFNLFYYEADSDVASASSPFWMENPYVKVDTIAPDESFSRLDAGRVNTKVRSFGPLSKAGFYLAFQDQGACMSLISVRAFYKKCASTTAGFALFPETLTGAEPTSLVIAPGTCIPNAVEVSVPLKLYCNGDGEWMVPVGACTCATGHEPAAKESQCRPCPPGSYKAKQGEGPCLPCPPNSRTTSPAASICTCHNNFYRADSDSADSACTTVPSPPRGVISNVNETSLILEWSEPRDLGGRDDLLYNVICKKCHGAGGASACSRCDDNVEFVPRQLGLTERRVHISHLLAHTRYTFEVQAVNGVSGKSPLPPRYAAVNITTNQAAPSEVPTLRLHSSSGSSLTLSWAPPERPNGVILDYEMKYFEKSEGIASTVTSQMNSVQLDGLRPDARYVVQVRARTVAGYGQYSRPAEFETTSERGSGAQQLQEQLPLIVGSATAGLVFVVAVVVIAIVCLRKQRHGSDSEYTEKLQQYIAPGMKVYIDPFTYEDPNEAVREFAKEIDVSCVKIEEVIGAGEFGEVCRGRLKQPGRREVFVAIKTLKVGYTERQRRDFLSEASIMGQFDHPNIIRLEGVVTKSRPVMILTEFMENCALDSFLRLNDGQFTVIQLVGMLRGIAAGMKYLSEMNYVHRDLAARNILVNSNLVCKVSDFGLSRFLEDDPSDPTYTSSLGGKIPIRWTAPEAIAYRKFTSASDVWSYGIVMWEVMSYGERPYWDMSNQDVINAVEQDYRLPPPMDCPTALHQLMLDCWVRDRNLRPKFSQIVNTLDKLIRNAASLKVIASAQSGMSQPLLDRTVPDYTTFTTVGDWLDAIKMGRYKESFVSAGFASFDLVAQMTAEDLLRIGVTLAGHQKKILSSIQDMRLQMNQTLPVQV
The conditions noted are these: Protein EPHB3A; average of three replicates. Here is the method:
as §1

The target of experiment [5] is T5, ~100 representative kinases (Homo sapiens, UniProt Q13043).
T5 construct: Recombinant protein kinase domains with a concentration of 2 μM
T5 sequence (Q13043 1-487): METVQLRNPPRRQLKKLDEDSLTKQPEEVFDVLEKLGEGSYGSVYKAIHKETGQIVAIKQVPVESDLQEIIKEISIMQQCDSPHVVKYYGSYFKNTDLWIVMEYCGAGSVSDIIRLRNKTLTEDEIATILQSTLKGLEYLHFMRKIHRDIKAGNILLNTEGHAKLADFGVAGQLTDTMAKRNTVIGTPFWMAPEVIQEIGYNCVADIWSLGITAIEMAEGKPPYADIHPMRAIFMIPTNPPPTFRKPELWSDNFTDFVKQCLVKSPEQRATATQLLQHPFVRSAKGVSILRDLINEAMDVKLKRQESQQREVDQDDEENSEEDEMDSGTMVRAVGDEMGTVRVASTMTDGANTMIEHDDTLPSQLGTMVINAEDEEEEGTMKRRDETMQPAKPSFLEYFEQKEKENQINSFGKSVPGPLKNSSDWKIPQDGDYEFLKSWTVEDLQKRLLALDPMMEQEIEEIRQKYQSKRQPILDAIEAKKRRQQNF
To be noted: Protein STK4; DSF; average of three replicates. As to the method: as §1

The target of experiment [6] is T6, ~100 representative kinases (Homo sapiens, UniProt Q16539).
T6 construct: Recombinant protein kinase domains with a concentration of 2 μM
T6 sequence (Q16539 whole entry, the tested form may be a part): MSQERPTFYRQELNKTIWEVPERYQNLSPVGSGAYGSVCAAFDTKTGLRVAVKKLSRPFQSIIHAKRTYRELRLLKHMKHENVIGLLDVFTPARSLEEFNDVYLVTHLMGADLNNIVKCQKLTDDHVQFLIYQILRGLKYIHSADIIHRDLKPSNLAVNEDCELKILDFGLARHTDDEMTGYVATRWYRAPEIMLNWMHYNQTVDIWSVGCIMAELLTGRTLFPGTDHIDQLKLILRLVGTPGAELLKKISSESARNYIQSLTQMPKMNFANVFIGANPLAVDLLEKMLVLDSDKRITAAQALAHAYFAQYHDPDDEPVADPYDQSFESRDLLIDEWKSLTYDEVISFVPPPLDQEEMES
Here is the method:
as §1

Experiment [7] deals with T7, ~100 representative kinases (Homo sapiens, UniProt Q9Y6E0).
T7 construct: Recombinant protein kinase domains with a concentration of 2 μM
T7 sequence (Q9Y6E0 whole entry, the tested form may be a part): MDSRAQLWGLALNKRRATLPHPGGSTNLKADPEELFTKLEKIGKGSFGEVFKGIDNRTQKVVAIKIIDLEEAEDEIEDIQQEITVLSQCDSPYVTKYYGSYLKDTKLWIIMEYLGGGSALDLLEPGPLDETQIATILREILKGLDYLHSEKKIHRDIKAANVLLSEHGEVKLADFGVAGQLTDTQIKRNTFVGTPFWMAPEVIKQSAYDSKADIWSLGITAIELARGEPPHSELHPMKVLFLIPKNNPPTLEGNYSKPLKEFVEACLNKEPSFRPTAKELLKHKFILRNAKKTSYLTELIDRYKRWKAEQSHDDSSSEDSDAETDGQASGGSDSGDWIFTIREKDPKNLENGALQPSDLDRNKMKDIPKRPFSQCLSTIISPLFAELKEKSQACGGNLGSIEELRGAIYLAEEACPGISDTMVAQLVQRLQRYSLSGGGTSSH
The conditions noted are these: protein MST3; average of three replicates. Here is the method:
as §1

Setting [8] is: protein MAPK14, average of three replicates.

Like-named read-outs stand apart in the source and are kept apart here.

T3 sequence (P19784 whole entry, the tested form may be a part): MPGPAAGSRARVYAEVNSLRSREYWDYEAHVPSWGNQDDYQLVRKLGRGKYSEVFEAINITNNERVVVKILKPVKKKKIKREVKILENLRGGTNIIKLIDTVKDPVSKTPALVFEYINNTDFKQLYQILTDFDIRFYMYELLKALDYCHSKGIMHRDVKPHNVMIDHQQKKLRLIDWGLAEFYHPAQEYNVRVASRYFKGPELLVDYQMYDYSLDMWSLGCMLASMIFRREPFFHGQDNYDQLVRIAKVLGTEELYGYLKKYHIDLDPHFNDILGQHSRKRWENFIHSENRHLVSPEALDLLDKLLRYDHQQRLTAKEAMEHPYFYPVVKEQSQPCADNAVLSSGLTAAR
T1 sequence (O15075 whole entry, the tested form may be a part): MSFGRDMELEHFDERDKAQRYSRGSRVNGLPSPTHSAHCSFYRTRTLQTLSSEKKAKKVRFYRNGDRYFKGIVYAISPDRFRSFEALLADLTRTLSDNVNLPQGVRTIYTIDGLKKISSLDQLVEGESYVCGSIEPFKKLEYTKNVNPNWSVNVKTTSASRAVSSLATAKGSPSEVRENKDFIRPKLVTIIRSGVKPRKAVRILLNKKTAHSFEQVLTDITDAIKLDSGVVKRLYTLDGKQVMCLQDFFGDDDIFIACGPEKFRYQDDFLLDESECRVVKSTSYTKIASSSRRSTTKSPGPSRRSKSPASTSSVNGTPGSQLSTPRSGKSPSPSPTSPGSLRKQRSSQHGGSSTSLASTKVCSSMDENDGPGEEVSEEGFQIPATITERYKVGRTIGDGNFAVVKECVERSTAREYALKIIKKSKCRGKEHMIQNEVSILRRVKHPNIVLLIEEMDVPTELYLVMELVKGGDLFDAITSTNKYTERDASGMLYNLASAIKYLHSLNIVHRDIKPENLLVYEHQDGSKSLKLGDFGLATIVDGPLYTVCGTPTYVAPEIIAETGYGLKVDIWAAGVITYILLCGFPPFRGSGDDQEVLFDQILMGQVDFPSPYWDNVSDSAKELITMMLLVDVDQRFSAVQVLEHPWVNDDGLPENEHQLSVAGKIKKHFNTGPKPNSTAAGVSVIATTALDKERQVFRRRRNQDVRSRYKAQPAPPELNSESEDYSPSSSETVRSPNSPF

For the compound `O=C(Nc1cccc(-c2c[nH]c3ncnc(N4CCOCC4)c23)c1)C1(C(=O)Nc2ccc(F)c(Cl)c2)CC1` [Compound 18], the dTm worked out at 2.36 K in experiment [1]; 2.20 K in experiment [2]; 1.36 K in experiment [3]; 2.57 K in experiment [4]; 6.48 K in experiment [5]; 1.31 K in experiment [6] (setting [8]). Further, in experiment [7], the dTm came out at 6.96 K.
For `CCc1ccc(NC(=O)C2(C(=O)Nc3cccc(-c4c[nH]c5ncnc(N6CCOCC6)c45)c3)CC2)cc1` [Compound 15], the dTm in experiment [1] amounted to 0.05 K; in experiment [2], 0.64 K; in experiment [3], 1.24 K; in experiment [4], 4.01 K; in experiment [5], 5.52 K; in experiment [6] (setting [8]), 0.36 K. The dTm in experiment [7] turned out to be 2.23 K.
In the case of `CCNc1nc(Nc2cc(F)c(C(=O)N3CCOCC3)cc2OC)ncc1C(F)(F)F` [GNE-7915], the dTm turned out to be 2.14 K in experiment [1]; 0.25 K in experiment [2]; 2.65 K in experiment [3]; 0.08 K in experiment [4]; 0.31 K in experiment [5]; 0.16 K in experiment [6] (setting [8]). In addition, the dTm in experiment [7] is 0.91 K.
As for `O=C(Nc1cccc(-c2c[nH]c3ncnc(N4CCOCC4)c23)c1)c1cccn(-c2ccc(F)cc2)c1=O` [Compound 4], the dTm is 0.57 K in experiment [1]; 3.37 K in experiment [2]; -5.10 K in experiment [3]; 3.66 K in experiment [4]; 7.31 K in experiment [5]; 1.17 K in experiment [6] (setting [8]). Further, the dTm in experiment [7] was 3.28 K.
Regarding `Cc1ccc(C(=O)Nc2ccc(CN3CCN(C)CC3)c(C(F)(F)F)c2)cc1C#Cc1cnc2[nH]ncc2c1` [GZD-824, reference compound], the dTm in experiment [1] came out at 0.30 K; in experiment [2] it was 12.20 K; in experiment [3], 1.79 K; in experiment [4], 15.76 K; in experiment [5], 4.50 K; in experiment [6] it was 17.66 K. In experiment [7], the dTm turned out to be 10.01 K.
`O=C(Nc1ccccc1)C1(C(=O)Nc2cccc(-c3c[nH]c4ncnc(N5CCOCC5)c34)c2)CC1` [Compound 12]: the dTm in experiment [1] is given as 0.95 K; in experiment [2], 1.41 K; in experiment [3], 7.05 K; in experiment [4], 3.99 K; in experiment [5] it was 4.49 K; in experiment [6] (setting [8]), 0.0252 K. The dTm in experiment [7] came out at 3.58 K.
As for `Cc1ccc(C(=O)Nc2ccc(CN3CCN(C)CC3)c(C(F)(F)F)c2)cc1C#Cc1c[nH]c2ncnc(N3CCOCC3)c12` [Compound 1], the dTm in experiment [1] is -0.0556 K; in experiment [2] it was 2.59 K; in experiment [3], -0.08 K; in experiment [4], 4.94 K; in experiment [5] it was 7.61 K; in experiment [6] (setting [8]), 5.43 K. Moreover, the dTm in experiment [7] is 3.57 K.
For the compound `Cc1cc(F)ccc1NC(=O)C1(C(=O)Nc2cccc(-c3c[nH]c4ncnc(N5CCOCC5)c34)c2)CC1` [Compound 24], the dTm in experiment [1] is reported as -1.61 K; in experiment [2], 0.81 K; in experiment [3], -0.63 K; in experiment [4], 1.32 K; in experiment [5], 4.47 K; in experiment [6] (setting [8]) it was -0.59 K. In experiment [7], the dTm amounted to 3.82 K.
As to `O=C(Nc1cc(F)cc(Br)c1)C1(C(=O)Nc2cccc(-c3c[nH]c4ncnc(N5CCOCC5)c34)c2)CC1` [Compound 27], the dTm in experiment [1] is reported as 4.07 K; in experiment [2], 0.76 K; in experiment [3], 2.42 K; in experiment [4] it was -2.17 K; in experiment [5], 0.00 K; in experiment [6] (setting [8]), 1.86 K. The same compound yielded a dTm in experiment [7] of 3.03 K.
Turning to `O=C(Nc1ccc(Cl)cc1)C1(C(=O)Nc2cccc(-c3c[nH]c4ncnc(N5CCOCC5)c34)c2)CC1` [Compound 13], the dTm in experiment [1] is listed as 2.89 K; in experiment [2] it was 1.36 K; in experiment [3], 9.70 K; in experiment [4] it was 5.32 K; in experiment [5] it was 7.95 K; in experiment [6] (setting [8]) it was 1.55 K. Also, in experiment [7], the dTm was found to be 4.95 K.
`COc1cc(S(C)(=O)=O)ccc1Nc1nc(N(C)C)c2c(Cl)c[nH]c2n1` [Compound 37]: the dTm in experiment [1] was -0.34 K; in experiment [2] it was 0.09 K; in experiment [3], 1.16 K; in experiment [4], -1.89 K; in experiment [5], -0.52 K; in experiment [6] (setting [8]), -0.35 K. In addition, the dTm in experiment [7] was -2.45 K.
For the compound `O=C(Nc1cccc(-c2c[nH]c3ncnc(N4CCOCC4)c23)c1)C1(C(=O)Nc2ccc(F)c(F)c2)CC1` [Compound 17], the dTm in experiment [1] was 1.90 K; in experiment [2], 1.11 K; in experiment [3], 8.40 K; in experiment [4] it was 1.94 K; in experiment [5], 5.12 K; in experiment [6] (setting [8]), 0.53 K. In experiment [7], this compound came in with a dTm of 6.82 K.
Consider `CNC(=O)c1cc(Oc2ccc(NC(=O)Nc3cc(C(C)(C)C)nn3-c3ccc4ncccc4c3)c(F)c2)ccn1` [Rebastinib, reference compound], for which the dTm in experiment [1] is listed as 3.67 K; in experiment [2], 5.75 K; in experiment [3], 1.06 K; in experiment [4] it was -2.84 K; in experiment [5], 7.33 K; in experiment [6] (setting [8]) it was 20.84 K.
Take `O=C(Nc1cccc(-c2c[nH]c3ncnc(N4CCOCC4)c23)c1)C1(C(=O)Nc2cc(Br)c(F)cc2F)CC1` [Compound 25]: the dTm in experiment [1] was 3.61 K; in experiment [2] it was 0.52 K; in experiment [3] it was 1.70 K; in experiment [4], -0.88 K; in experiment [5], 0.00 K; in experiment [6] (setting [8]), 2.03 K. In experiment [7], this compound displayed a dTm of 0.83 K.
Regarding `CC(C)(C)c1cc(NC(=O)Nc2cccc(-c3c[nH]c4ncnc(N5CCOCC5)c34)c2)n(-c2ccc3ncccc3c2)n1` [Compound 28], the dTm was 3.53 K in experiment [1]; 8.37 K in experiment [2]; -0.38 K in experiment [3]; 11.98 K in experiment [4]; 8.26 K in experiment [5]; 3.86 K in experiment [6] (setting [8]). In addition, the dTm in experiment [7] is 9.37 K.
With `CN[C@@H]1C[C@H]2O[C@@](C)([C@@H]1OC)n1c3ccccc3c3c4c(c5c6ccccc6n2c5c31)C(=O)NC4` [Staurosporine], the dTm in experiment [1] came to 12.74 K; in experiment [4], 7.02 K.
For `Cc1ccc(C(=O)Nc2ccc(CN3CCN(C)CC3)c(C(F)(F)F)c2)cc1C#Cc1cnc2cccnn12` [Ponatinib, reference compound], the dTm in experiment [2] amounted to 11.47 K; in experiment [4], 13.49 K; in experiment [6] (setting [8]), 12.52 K.

These data come from paper PMC12136037, “Type II kinase inhibitors that target Parkinson’s disease–associated LRRK2” (Science Advances, 2025).
